| SMILES | melting point |
| --- | --- |
| O=C1CC(C(=O)O)CC(O)=C1N=Nc1ccccc1 (stereo not given) | 218 °C |
| Nc1cc(F)c(F)cc1C(=O)c1ccccc1 | 100 to 101 °C |
| Cc1nnc(-c2ccc3occ(C(=O)N4CCOCC4)c3c2)o1 | 168 to 169 °C |
| CCOC(=O)c1cc(=O)c2cc(OC)cc(Br)c2o1 | 159 to 161 °C |
| O=S(=O)(Cc1ccc(Cl)c(Cl)c1)Cc1ccc(Cl)c(Cl)c1 | 177 °C |
| C=Cc1ccc(NS(C)(=O)=O)c(F)c1 | 82 °C |
| COc1cc2ccc(-c3cc4c(cc3[N+](=O)[O-])OCO4)c([N+](=O)[O-])c2cc1OC | 187 to 189 °C |
| Oc1ccc2c(c1)Cc1c-2cc2ccc(O)cc2c1C=C(F)F | 211 to 212 °C |
| Cc1cc(N2C=CC(=O)CC2)nn2cnnc12 | 264 to 266 °C |
| COC(=O)c1cnn2c(C(F)(F)F)cc(O)nc12 | 149 to 150 °C |
| CC1CC(C)C(C)(C)c2ccc(-c3cccc(-c4ccc(C(=O)O)cc4)c3O)cc21 (stereo not given) | 121 °C |
| CC(=NOCCOc1ccc(CC2SC(=O)NC2=O)cc1)c1ccc(-c2ccccc2)cc1 (stereo not given) | 164 to 166 °C |
| CC(C)CC1CCCCCc2c1oc(=O)c(C(c1ccccc1)C1CC1)c2O (stereo not given) | 86 to 92 °C |
| CN(C)CCOC(=O)c1cc(F)ccc1Nc1ccnc2c(Cl)cccc12 | 121 to 122 °C |
| COc1cc2c(N3CCN(C(=O)Nc4ccc(Oc5ccccc5)cc4)CC3)ncnc2c(OC)c1OC | 83 to 84 °C |
| O=C(O)Cc1csc(NC(=O)C(CC2CCCC2)c2ccc(Cl)c(Cl)c2)n1 (stereo not given) | 100 to 102 °C |
| CC(C)(C)NC(=O)N1CCn2c(Cl)c(-c3cccc(C#N)c3)c(C(N)=O)c2C1 | 192 to 195 °C |
| CN(C)c1ncnc2c1c(-c1ccc([N+](=O)[O-])o1)nn2C | 161 °C |
| O=C(Nc1c(C(O)(C(F)(F)F)C(F)(F)F)ccc2ccccc12)c1ccc(F)cc1 | 135 to 136 °C |
| O=C(c1cccc(C(F)(F)F)c1)c1ncccc1C(O)=NNc1c(Cl)cc(C(F)(F)F)cc1Cl | 92 to 96 °C |
| CCOC(=O)Cc1ncnc2c([N+](=O)[O-])cccc12 | 162 to 164 °C |
| CCNC(=O)N(Cc1ccc(Cl)cc1)C1CC2CCC1C2 (stereo not given) | 132 to 133 °C |
| NC(=O)c1nc(-c2ccc(=O)[nH]c2)c(-c2ccccc2)nc1N | 215 to 220 °C |
| CC1(C)OC(=O)Nc2ccc(-c3cccc(C#N)c3F)cc21 | 192 to 198 °C |

| SMILES | melting point |
| --- | --- |
| Cc1ccc(S(=O)(=O)OCC2OC(n3ccc(=O)[nH]c3=O)CC2O)cc1 (stereo not given) | 162 °C |
| C=CCOCC(O)CN1CCN(c2nc(-c3ccccc3)nc3ccccc23)CC1 (stereo not given) | 85 to 87 °C |
| O=C1c2ccccc2C(=O)c2c1c(Oc1ccc(CCCO)cc1)c1ccccc1c2Oc1ccc(CCCO)cc1 | 218 to 220 °C |
| Cc1ccc(CNC(=O)c2ccc3n2Cc2ccccc2N(C(=O)CSc2ccc(Br)cc2)C3)cc1 | 131 to 132 °C |
| C=C1CCC2C3CCC4=CC(=O)C=CC4(C)C3CCC12C (stereo not given) | 155 to 157 °C |
| O=C(c1cccnc1)N1CCC(c2ccccc2Cl)=N1 | 115 to 116 °C |
| COC(=O)c1cc2ccc(C(=O)O)cc2[nH]1 | 270 to 272 °C |
| CCOC(=O)c1cnn2c(O)cc(-c3ccc(Cl)cc3)nc12 | 190 to 192 °C |
| N#CN=C(Cc1ccccc1F)NC1CCc2ccccc21 (stereo not given) | 141 to 142 °C |
| CC(C)[C@@H](NCC1(O)OC[C@@H](O)[C@@H](O)[C@@H]1O)C(=O)O (stereo not given in full) | 125 to 126 °C |
| CC(C)(C)NC(=O)c1nn(-c2ccc(F)cc2F)c2c1[C@@H]1CC[C@@]2(C)C1(C)C | 161 to 163 °C |
| CS(=O)c1ccc(F)c(-c2nc3ncccc3[nH]2)c1 (stereo not given) | 190 to 192 °C |
| CN1CCC(NC(=O)c2cccc(Cl)c2)C12CCCCC2 (stereo not given) | 121 to 122 °C |
| COc1ccc(NC(=O)N(C)Cc2cccc3c2CN(C2CCC(=O)NC2=O)C3=O)cc1 (stereo not given) | 245 to 247 °C |
| CCC(O)(c1ccc(F)cc1)c1ccc(OCc2ccccc2)cc1 (stereo not given) | 56 to 57 °C |
| O=C1C=C(c2c[nH]c3ccc(F)cc23)C(=O)N1 | 255 to 265 °C |
| CC(C)(C)OC(=O)NCCOCCNC1(c2ccccc2Cl)C(=O)Nc2ccc(Cl)cc21 (stereo not given) | 138 to 140 °C |
| CC(C)(C)OC(=O)NC(Cc1ccccc1)C(=O)NC(Cc1ccccc1)C(=O)NCCc1c[nH]cn1 (stereo not given) | 175 to 177 °C |
| CCn1ncc2c(NCC3CCCCC3)c3cccc(Br)c3nc21 | 160 to 162 °C |
| CCOC(=O)/C=C/c1c(-c2ccccc2)c2c3ccccc3cnn2c1C(C)C | 158 to 159 °C |
| NC1=NC(c2cccc(-c3cccnc3F)c2)(c2cnn(CC(F)(F)F)c2)C2=NCCCN12 (stereo not given) | 106 to 116 °C |
| C#CC(C)Oc1cc(Cl)ccc1-n1c(=O)cc(C(F)(F)F)n(C)c1=O (stereo not given) | 96 to 99 °C |
| C1=Cc2c(ccc3cccnc23)OC1 | 207 to 208 °C |
| CCCCCCCCc1nc2c(N)nc3ccccc3c2n1CCOCC#Cc1ccccc1 | 138 to 139 °C |

| SMILES | melting point |
| --- | --- |
| CCC1(CC(=O)O)OCCc2nc(-c3ccc(Cl)cc3)sc21 (stereo not given) | 190 to 191 °C |
| CCC(=O)Nc1cccc(O)c1 | 181 to 182 °C |
| CCOC(=O)c1c(-c2ccc(Cl)cc2)[nH]c(C(F)(F)F)c1C(F)(F)F | 138 to 140 °C |
| CCOC(=O)C1=CC(C2CC2)c2c(ccc(-c3cc4c(s3)C(O)CCC4)c2OC)C1=O (stereo not given) | 183 to 185 °C |
| Cc1cc(C)cc([PH](=O)c2cc(C)cc(C)c2)c1 | 82.4 °C |
| CC1CC(=O)NN=C1c1ccc(N)cc1 (single isomer, unassigned; (-)) | 203 to 204 °C |
| COC(=O)C1=C(C)NC2=C(C1c1cccc([N+](=O)[O-])c1)S(=O)(=O)CCC2 (stereo not given) | 236 to 238 °C |
| c1ccc(C2(Cn3cncn3)OCCO2)cc1 | 127 °C |
| COC(=O)c1n[nH]c(=O)c2cc(OC)ccc12 | 222 to 225 °C |
| CCCCCCCCN(CCCCCCCC)C(=O)CS(=O)(=O)Nc1c(C(C)C)cccc1C(C)C | 107 to 109 °C |
| CN(C(=S)Nc1ccc(Cl)cc1Cl)c1cccc(C(=CCCCC(=O)O)c2cccnc2)c1 | 124 to 126 °C |
| Cn1nc(N)nc1NCCCOc1cccc(CNCc2ccccc2)c1 | 90 to 91 °C |
| O=C1c2cccc3cccc(c23)C(=O)N1CCN1CCC(c2c[nH]c3ccc(F)cc23)CC1 | 235 °C |
| COc1cc(C2COc3c(C)c(C)c(NC(=O)CC(C)(C)C)c(C)c32)ccc1C(C)C (stereo not given) | 170 to 171 °C |
| CCOC(=O)C=Cc1ccc([N+](=O)[O-])c(C)c1 | 90 to 92 °C |
| O=c1c(C=NO)c(Cl)nc2n1CCS2 | 148 to 150 °C |
| O=[N+]([O-])c1cccc(/C=C/c2nc(C3CCCC3)cs2)c1 | 65 to 70 °C |
| Cc1nc2ncnn2c(N[C@@H](C)c2ccc(F)cc2)c1Cl | 103 to 104 °C |
| CNc1nc(C)c(-c2ccnc(Nc3ccc(N4CCN(C(C)=O)CC4)cc3)n2)s1 | 213 to 214 °C |
| CCOC(=O)Cn1c(-c2ccc([N+](=O)[O-])cc2)nc2cccnc21 | 192 to 194 °C |
| Cc1noc(NS(=O)(=O)c2ccccc2-c2ccc(-c3ncco3)cc2CNC(C)C(F)(F)F)c1C (stereo not given) | 60 to 70 °C |
| CC1(C)CC(NC(=O)c2ccc(-c3cc4cc(Cl)c(Cl)cc4[nH]3)c(OCc3ccccc3)c2)CC(C)(C)N1 | 220 °C |

Reference: a melting point compilation (Tetko et al.; mined from patent text by program, amines drawn as free bases though some values may be those of a salt)
